Like-named read-outs stand apart in the source and are kept apart here.

The target of experiment [1] is HMGR (Homo sapiens (Human), UniProt P04035). Description: HMG-CoA reductase (HMGR) activity assay, recombinant protein. The experiment is classed as biochemical. The note with it: for IC50: mean ± SD of three experiments. The source says:
HMG-CoA Reductase (HMGR) Activity Assay.

For experiment [2], the target named is HDAC1 (Homo sapiens (Human), UniProt Q13547). Nature of the experiment: HDAC fluorescent activity assay (HDAC1). The experiment is classed as biochemical. As for the experimental part:
(§1) The HDAC activity was performed using the HDAC fluorescent activity assay kit (BIOMOL, Plymouth Meeting, Pa., USA) according to the manufacturer's instructions. Briefly, recombinant proteins of HDAC1 or HDAC6 were incubated with test compounds, and HDAC reaction was initiated by addition of Fluor-de-Lys substrate. Samples were incubated for 10 min at room temperature, followed by adding developer to stop the reaction. Fluorescence was measured by fluorometric reader with excitation at 360 nm and emission at 460 nm. The HDAC activity was expressed as arbitrary fluorescence units (AFU). […] The half maximal inhibitory concentration (IC50) values for the test compounds were calculated from software SigmaPlot.

Experiment [3] addresses HDAC2 (Homo sapiens (Human), UniProt Q92769). Nature of the experiment: HDAC fluorescent activity assay (HDAC2). The experiment is classed as biochemical.
Experiment [4] has as its target HDAC6 (Homo sapiens (Human), UniProt Q9UBN7). Nature of the experiment: HDAC fluorescent activity assay (HDAC6). It is filed as biochemical. The note with it: mean ± SD of three experiments. As for the experimental part:
as §1

Experiment [5] relates to acetylation of histone H3 in A549 lung cancer cells. Description: Western blot analysis of histone acetylation in A549 cells. The experiment is classed as cell-based, human. The conditions noted are these: SAHA at 5 μM. As for the experimental part:
(§2) After treated with test compounds (i.e., compounds of example 1), cells were lysed on ice, and cell lysates were collected and subjected to SDS-PAGE. Immunoblotting was performed using specific antibodies to evaluate the expression of proteins.
(§3) The intracellular histone acetylation status is a direct indicator for class I HDAC inhibition, whereas α-tubulin is the substrate of class II HDAC (i.e., HDAC 6).
(In general: In western blotting, separated proteins are transferred to a membrane and probed.)

For experiment [6], the system named is acetylation of α-tubulin in A549 cells. Nature of the experiment: Western blot analysis of tubulin acetylation in A549 cells. The experiment is classed as cell-based, human. The conditions noted are these: SAHA at 5 μM. As for the experimental part: as §2, §3
Experiment [7] deals with HMGR activity in A549 lung cancer cells (Homo sapiens (Human), UniProt P04035). Description: HMGR activity in whole cell lysates of treated A549 lung cancer cells. The conditions noted are these: 1-50 μM, 24 h.
HMGR activity in A549 lung cancer cells, sequence (P04035 whole entry): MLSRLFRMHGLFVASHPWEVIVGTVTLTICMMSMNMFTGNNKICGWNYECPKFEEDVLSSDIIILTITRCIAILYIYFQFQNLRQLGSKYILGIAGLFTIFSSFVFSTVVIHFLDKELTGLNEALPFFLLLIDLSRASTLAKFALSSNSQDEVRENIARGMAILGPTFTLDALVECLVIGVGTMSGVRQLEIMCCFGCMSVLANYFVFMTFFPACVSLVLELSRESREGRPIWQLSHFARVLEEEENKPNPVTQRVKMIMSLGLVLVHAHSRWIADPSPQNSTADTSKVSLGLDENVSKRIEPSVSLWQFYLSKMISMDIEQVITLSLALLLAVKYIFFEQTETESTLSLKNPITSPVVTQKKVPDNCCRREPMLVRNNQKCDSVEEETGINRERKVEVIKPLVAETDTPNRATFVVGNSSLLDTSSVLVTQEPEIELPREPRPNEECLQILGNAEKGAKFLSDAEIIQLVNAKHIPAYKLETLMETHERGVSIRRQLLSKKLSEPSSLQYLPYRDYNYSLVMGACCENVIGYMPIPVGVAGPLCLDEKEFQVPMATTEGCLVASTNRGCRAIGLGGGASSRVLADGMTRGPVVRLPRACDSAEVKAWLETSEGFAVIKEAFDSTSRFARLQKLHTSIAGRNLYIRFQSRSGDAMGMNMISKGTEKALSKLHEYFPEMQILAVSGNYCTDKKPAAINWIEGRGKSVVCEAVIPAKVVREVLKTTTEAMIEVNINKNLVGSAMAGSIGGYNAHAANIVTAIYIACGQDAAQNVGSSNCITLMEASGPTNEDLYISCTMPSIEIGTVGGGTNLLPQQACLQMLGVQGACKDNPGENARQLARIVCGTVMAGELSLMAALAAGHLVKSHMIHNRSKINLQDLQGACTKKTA
Protocol: A549 cells were cultured in Dulbecco's modified Eagle's medium (DMEM) in a humidified incubator containing 5% CO2/95% air.
The HMGR activity was performed using HMG-CoA reductase assay kit from Sigma-Aldrich with the human recombinant protein or 100 μg total cell lysates from A549 cells. […] HMGR activity under defined assay conditions, containing NADPH and HMG-CoA substrate in a final volume of 0.2 mL of 100 mM potassium phosphatate buffer (120 mM KCI, 1 mM EDTA, 5 mM DTT, pH 7.4), were initiated in the presence or absence (control) of test compounds dissolved in dimethylsulfoxide (DMSO). The rates of NADPH consumption were monitored every 20 seconds, for up to 10 minutes, by spectrophotometer at 37° C. and 340 nm. The HMGR activity was calculated as a percentage of activity compared with the control group at 5 min. The IC50 values were calculated from software SigmaPlot.

HDAC2, sequence (Q92769 whole entry, species assumed): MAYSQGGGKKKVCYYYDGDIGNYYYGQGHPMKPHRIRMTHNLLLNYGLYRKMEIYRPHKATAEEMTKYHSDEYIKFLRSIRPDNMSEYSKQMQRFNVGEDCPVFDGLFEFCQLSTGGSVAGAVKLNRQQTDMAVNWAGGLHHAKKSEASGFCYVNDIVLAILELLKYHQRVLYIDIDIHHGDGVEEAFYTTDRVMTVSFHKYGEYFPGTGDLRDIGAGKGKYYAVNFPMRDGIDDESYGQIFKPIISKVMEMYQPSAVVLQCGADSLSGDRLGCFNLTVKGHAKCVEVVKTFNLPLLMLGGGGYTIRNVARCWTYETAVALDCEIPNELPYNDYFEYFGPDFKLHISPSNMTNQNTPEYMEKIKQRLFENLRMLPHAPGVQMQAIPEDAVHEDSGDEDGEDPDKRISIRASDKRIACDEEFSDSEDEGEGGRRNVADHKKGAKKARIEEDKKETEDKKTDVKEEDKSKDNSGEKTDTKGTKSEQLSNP
HDAC6, sequence (Q9UBN7 whole entry, species assumed): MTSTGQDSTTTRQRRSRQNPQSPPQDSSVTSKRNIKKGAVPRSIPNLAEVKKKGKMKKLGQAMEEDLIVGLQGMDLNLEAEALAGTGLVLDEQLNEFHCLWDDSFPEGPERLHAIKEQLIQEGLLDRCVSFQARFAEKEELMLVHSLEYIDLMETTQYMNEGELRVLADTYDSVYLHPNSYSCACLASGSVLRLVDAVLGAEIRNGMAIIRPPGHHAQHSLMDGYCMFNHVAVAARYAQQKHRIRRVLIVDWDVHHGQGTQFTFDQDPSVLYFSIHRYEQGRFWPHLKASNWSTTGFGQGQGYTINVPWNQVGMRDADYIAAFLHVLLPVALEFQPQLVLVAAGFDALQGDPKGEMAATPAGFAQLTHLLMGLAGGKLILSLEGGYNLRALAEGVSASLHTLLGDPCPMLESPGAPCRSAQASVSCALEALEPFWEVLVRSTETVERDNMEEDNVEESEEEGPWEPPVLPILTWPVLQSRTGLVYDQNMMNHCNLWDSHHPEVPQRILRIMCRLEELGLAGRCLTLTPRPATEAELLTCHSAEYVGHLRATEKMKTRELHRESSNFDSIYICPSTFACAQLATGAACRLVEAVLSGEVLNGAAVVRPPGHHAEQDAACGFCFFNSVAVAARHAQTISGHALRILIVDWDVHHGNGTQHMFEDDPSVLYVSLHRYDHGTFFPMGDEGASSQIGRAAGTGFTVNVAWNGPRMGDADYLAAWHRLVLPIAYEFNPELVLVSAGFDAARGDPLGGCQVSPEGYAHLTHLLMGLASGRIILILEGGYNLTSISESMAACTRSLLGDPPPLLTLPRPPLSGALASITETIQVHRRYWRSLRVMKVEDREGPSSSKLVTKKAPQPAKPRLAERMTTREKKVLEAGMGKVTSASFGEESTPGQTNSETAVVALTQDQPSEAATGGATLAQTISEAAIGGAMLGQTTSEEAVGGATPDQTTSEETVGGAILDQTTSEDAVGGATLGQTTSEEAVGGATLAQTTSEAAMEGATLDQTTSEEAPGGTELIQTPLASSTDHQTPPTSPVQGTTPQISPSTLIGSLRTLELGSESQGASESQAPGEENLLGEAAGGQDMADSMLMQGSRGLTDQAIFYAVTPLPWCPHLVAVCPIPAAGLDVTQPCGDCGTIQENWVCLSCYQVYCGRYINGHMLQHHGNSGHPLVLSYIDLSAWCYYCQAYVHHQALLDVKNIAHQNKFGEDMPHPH
HMGR, sequence (P04035 426-888 limits assumed): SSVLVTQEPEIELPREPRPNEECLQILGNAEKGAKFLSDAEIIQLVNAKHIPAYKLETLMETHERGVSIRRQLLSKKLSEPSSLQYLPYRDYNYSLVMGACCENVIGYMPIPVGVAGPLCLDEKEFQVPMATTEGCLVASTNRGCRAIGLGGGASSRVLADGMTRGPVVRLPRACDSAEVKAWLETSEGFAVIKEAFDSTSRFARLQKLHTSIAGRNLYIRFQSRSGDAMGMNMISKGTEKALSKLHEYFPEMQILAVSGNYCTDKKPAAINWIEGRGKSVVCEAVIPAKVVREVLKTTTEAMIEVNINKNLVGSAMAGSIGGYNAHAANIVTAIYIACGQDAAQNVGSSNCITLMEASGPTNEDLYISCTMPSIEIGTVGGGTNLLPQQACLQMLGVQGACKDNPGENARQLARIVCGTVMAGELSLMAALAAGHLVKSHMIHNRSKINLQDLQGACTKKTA
HDAC1, sequence (Q13547 whole entry, species assumed): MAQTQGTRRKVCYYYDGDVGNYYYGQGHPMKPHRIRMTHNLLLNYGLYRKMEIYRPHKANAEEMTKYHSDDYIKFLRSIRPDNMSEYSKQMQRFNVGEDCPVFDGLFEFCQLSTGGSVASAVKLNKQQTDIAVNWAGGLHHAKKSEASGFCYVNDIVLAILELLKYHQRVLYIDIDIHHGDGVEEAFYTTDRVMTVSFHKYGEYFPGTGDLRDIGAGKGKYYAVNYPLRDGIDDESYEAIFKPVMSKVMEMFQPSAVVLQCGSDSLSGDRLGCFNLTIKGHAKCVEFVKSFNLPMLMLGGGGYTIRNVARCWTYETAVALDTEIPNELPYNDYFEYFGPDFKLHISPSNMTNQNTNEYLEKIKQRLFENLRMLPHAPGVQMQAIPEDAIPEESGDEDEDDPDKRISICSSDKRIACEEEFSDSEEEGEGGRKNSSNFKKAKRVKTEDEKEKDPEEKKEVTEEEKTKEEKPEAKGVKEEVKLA

Turning to `C#Cc1ccc(NC(=O)O[C@H]2C[C@@H](C)C=C3C=C[C@H](C)[C@H](CC[C@@H]4C[C@@H](O[Si](C)(C)C(C)(C)C)CC(=O)O4)[C@H]32)cc1` [6a, (4R,6R)-6-(2-{(1 S,2S,6R,8S,8aR)-8-[(4-ethynylphenyl)carbamoyloxy]-2,6-dimethyl-1,2,6,7,8,8a-hexahydronaphthyl}ethyl)-4-tert-butyldimethylsilyloxy-3,4,5,6-tetrahydro-2H-pyran-2-one], the IC50 in experiment [1] stood at 36.5 ± 5.3 nM; in experiment [2], 159 ± 8.4 nM; in experiment [3], 463 ± 28 nM; in experiment [4], 127 ± 21.5 nM.
Regarding `C#Cc1ccc(CNC(=O)O[C@H]2C[C@@H](C)C=C3C=C[C@H](C)[C@H](CC[C@@H]4C[C@@H](O[Si](C)(C)C(C)(C)C)CC(=O)O4)[C@H]32)cc1` [6b, (4R,6R)-6-(2-{(1S,2S,6R,8S,8aR)-8-[(4-Ethynylbenzyl)carbamoyloxy]-2,6-dimethyl-1,2,6,7,8,8a-hexahydronaphthyl}ethyl)-4-tert-butyldimethylsilyloxy-3,4,5,6-tetrahydro-2H-pyran-2-one], the IC50 was 53.8 ± 5.2 nM in experiment [1], 125 ± 6.3 nM in experiment [2] (mean ± SD of three experiments), 882 ± 9.7 nM in experiment [3] (mean ± SD of three experiments) and 34 ± 4.3 nM in experiment [4].
As for `C[C@H]1C=C2C=C[C@H](C)[C@H](CC[C@@H]3C[C@@H](O[Si](C)(C)C(C)(C)C)CC(=O)O3)[C@H]2[C@@H](OC(=O)Nc2ccc(-c3cn(CCCCCCC(=O)NO)nn3)cc2)C1` [8a, (4R,6R)-6-(2-{(1S,2S,6R,8S,8aR)-8-[(4-{1-[7-(Hydroxyamino)-7-oxoheptyl]-1H-1,2,3-triazol-4-yl}phenyl)carbamoyloxy]-2,6-dimethyl-1,2,6,7,8,8a-hexahydronaphthyl}ethyl)-4-tert-butyldimethylsilyloxy-3,4,5,6-tetrahydro-2H-pyran-2-one], the values for the IC50 in experiment [2], in experiment [3] and in experiment [4] were 159 ± 8.4 nM, 463 ± 28 nM and 127 ± 21.5 nM, respectively. For the same molecule, in experiment [5], the “histone acetylation (Western blot)” value is “promoted histone and tubulin acetylation in a dose dependent manner”. Further, the “tubulin acetylation (Western blot)” value in experiment [6] is “promoted histone and tubulin acetylation in a dose dependent manner”.
As for `C[C@H]1C=C2C=C[C@H](C)[C@H](CC[C@@H]3C[C@@H](O[Si](C)(C)C(C)(C)C)CC(=O)O3)[C@H]2[C@@H](OC(=O)NCc2ccc(-c3cn(CCCCCCC(=O)NO)nn3)cc2)C1` [8b, (4R,6R)-6-(2-{(1S,2S,6R,8S,8aR)-8-[(4-{1-[7-(Hydroxyamino)-7-oxoheptyl]-1H-1,2,3-triazol-4-yl}benzyl)carbamoyloxy]-2,6-dimethyl-1,2,6,7,8,8a-hexahydronaphthyl}ethyl)-4-tert-butyldimethylsilyloxy-3,4,5,6-tetrahydro-2H-pyran-2-one], the IC50 is 125 ± 6.3 nM in experiment [2], 882 ± 9.7 nM in experiment [3] and 34 ± 4.3 nM in experiment [4]. The “histone acetylation (Western blot)” value in experiment [5] was “promoted histone and tubulin acetylation in a dose dependent manner”. Besides, the “tubulin acetylation (Western blot)” value in experiment [6] was “promoted histone and tubulin acetylation in a dose dependent manner”.
For `C[C@H]1C=C2C=C[C@H](C)[C@H](CC[C@@H]3C[C@@H](O[Si](C)(C)C(C)(C)C)CC(=O)O3)[C@H]2[C@@H](OC(=O)NCCCCCCC(=O)NO)C1` [12a, (4R,6R)-6-[2-((1S,2S,6R,8S,8aR)-8-{[7-(Hydroxyamino)-7-oxoheptyl]carbamoyloxy}-2,6-dimethyl-1,2,6,7,8,8a-hexahydronaphthyl)ethyl]-4-tert-butyldimethylsilyloxy-3,4,5,6-tetrahydro-2H-pyran-2-one], the IC50 was 122 ± 12.7 nM in experiment [2] (mean ± SD of three experiments), 658 ± 21.1 nM in experiment [3] (mean ± SD of three experiments) and 140 ± 5.7 nM in experiment [4].
Regarding `O=C(CCCCCCC(=O)Nc1ccccc1)NO` [SAHA, suberanilohydroxamic acid, reference compound], the “inhibition of HMGR activity (in words)” value in experiment [1] (enzyme assay, any dose) was “no inhibition on HMGR activity at any dose”. For the same molecule, in experiment [5], the “histone acetylation (Western blot)” value was “markedly induced”. The “tubulin acetylation (Western blot)” value in experiment [6] is “markedly induced”. Further, the “reduction of HMGR activity in whole cell lysates (in words)” value in experiment [7] is given as “failed to inhibit HMGR at any dose”.
With `CC[C@H](C)C(=O)O[C@H]1C[C@@H](C)C=C2C=C[C@H](C)[C@H](CC[C@@H]3C[C@@H](O)CC(=O)O3)[C@H]21` [lovastatin, reference compound], the “histone acetylation (Western blot)” value in experiment [5] is “no effect”. The “tubulin acetylation (Western blot)” value in experiment [6] is “no effect”.

What is called IC50 is the point on the concentration scale where inhibition reaches its midpoint.
